Legend:
Assay type in all cases: in vivo
Stellaria media [1] = experiment: Postemergence herbicidal greenhouse evaluation, Test Serie A (Table II, picolinafen/carfentrazone-ethyl); settings: 21 days after treatment
Method: (§1) In the following examples, synergism for two-way combinations is determined by the Colby^1 method, i.e. the expected (or predicted) response of the combination is calculated by taking the product of the observed response for each individual component of the combination when applied alone divided by 100 and subtracting this value from the sum of the observed response for each component when applied alone. Synergism of the combination is then determined by comparing the observed response of the combination to the expected (or predicted) response as calculated from the observed responses of each individual component alone. If the observed response of the combination is greater than the expected (or predicted) response then the combination is said to be synergistic and falls within the definition of synergistic effect as previously defined.
(§2) Postemergence Herbicidal Greenhouse Evaluations
(§3) Plant seeds are sown in pots containing a loamy sand soil (0.5 l). The herbicides are applied as single treatments, or in a combination comprising a compound of formula I and a second compound as defined above, after emergence of weeds and crop. The herbicidal performance is assessed as percent damage in comparison to the untreated control plants. The assessment is done 21 days after the treatment. Wheat and barley are treated at the 3-4 leaf stage, the broad-leaf weeds at the 2-4 leaf stage and annual grasses at the 2-3 leaf stage. [formula]
(§4) For the compound of formula I picolinafen is employed.
(§5) The damage caused by the chemicals was assessed with reference to a scale from 0 to 100% in comparison with the untreated control plants. 0 means no damage and 100 means compete destruction of the plants.

Veronica persicaria = experiment: Postemergence herbicidal evaluation, Test Serie B, in spring wheat (Table III); settings: weed growth stage 14, test period 14 days
Method: as §1, §5
(§6) For the post-emergence treatment, the test plants were first grown to a height of 3 to 20 cm, depending on the growth habit, and only then treated. The herbicides were suspended or emulsified in water as the vehicle and sprayed with the aid of finely distributing nozzles.
(§7) Cinidon-ethyl was formulated as a 20% by weight emulsion concentrate and employed in the spray mixture with addition of that amount of solvent system with which the active ingredient had been applied at the application rates shown in the tables.
(§8) Picolinofen was formulated as a 10% by weight emulsion concentrate and empolyed in the spray mixture with addition of that amount of solvent system with which the active ingredient had been applied at the rates shown in the tables.
(§9) The test period extended over 14 days. During this time, the plants were attended, and their responses to the treatments with active ingredients were recorded (Tables III and IV).

Anthimis mixta = experiment: as above; settings: weed growth stage 14, test period 14 days
Method: as §1, §5, §6, §7, §8, §9

Stellaria media [2] = experiment: Postemergence herbicidal evaluation, Test Serie B, in spring barley (Table IV); settings: weed growth stage 22, test period 14 days
Method: as §1, §5
For the post-emergence treatment, the test plants were first grown to a height of 3 to 20 cm, depending on the growth habit, and only then treated. […]
as §9

Alopecuris myosuroides = experiment: Postemergence herbicidal greenhouse evaluation, Test Serie A (Table I); settings: 21 days after treatment
Method: as §1, §2, §3, §4, §5

Lamium purpurium = experiment: as above; settings: 21 days after treatment
Method: as §1, §2, §3, §4, §5

Galium aparine = experiment: as above; settings: 21 days after treatment
Method: as §1, §2, §3, §4, §5

Papaver rhoeas = experiment: as above; settings: 21 days after treatment
Method: as §1, §2, §3, §4, §5

Stellaria media [3] = experiment: as above; settings: 21 days after treatment
Method: as §1, §2, §3, §4, §5

[4] = Picolinafen 30 g/ha, Flufenacet 0 g/ha
[5] = Picolinafen 60 g/ha, Flufenacet 0 g/ha
[6] = Picolinafen 15 g/ha, Flufenacet 0 g/ha
[7] = Picolinafen 0 g/ha, Flufenacet 15 g/ha
[8] = Picolinafen 0 g/ha, Flufenacet 120 g/ha
[9] = Picolinafen 0 g/ha, Flufenacet 30 g/ha

For O=C(Nc1ccc(F)cc1)c1cccc(Oc2cccc(C(F)(F)F)c2)n1 [Picolinafen, N-(4-fluorophenyl)-6-(-3-trifluoromethylphenoxy)-pyrid-2-ylcarboxamide], the “% Control OBS” value (Stellaria media [1]; Picolinafen 30 g/ha, Carfentrazone-ethyl 0 g/ha) was 37%, the “% Control OBS” value (Stellaria media [1]; Picolinafen 60 g/ha, Carfentrazone-ethyl 0 g/ha) was 45% and the “% Control OBS” value (Stellaria media [1]; Picolinafen 120 g/ha, Carfentrazone-ethyl 0 g/ha) was 72%. The “% Control OBS” value (Veronica persicaria; Picolinafen 50 g/ha alone) was 10%, the “% Control OBS” value (Anthimis mixta; Picolinafen 50 g/ha alone) was 10% and the “% Control OBS” value (Stellaria media [2]; Picolinafen 50 g/ha alone) was 10%. The “% Control OBS” value (Alopecuris myosuroides; [4]) was 20%, the “% Control OBS” value (Alopecuris myosuroides; [5]) was 43% and the “% Control OBS” value (Alopecuris myosuroides; Picolinafen 120 g/ha, Flufenacet 0 g/ha) was 60%. For the same compound, the “% Control OBS” value (Lamium purpurium; [4]) was 15%, the “% Control OBS” value (Galium aparine; [6]) was 78% and the “% Control OBS” value (Papaver rhoeas; [4]) was 15%. The “% Control OBS” value (Papaver rhoeas; [5]) was 35%, the “% Control OBS” value (Stellaria media [3]; [6]) was 53% and the “% Control OBS” value (Stellaria media [3]; [4]) was 73%.
For CCOC(=O)/C(Cl)=C/c1cc(N2C(=O)C3=C(CCCC3)C2=O)ccc1Cl [Cinidon-ethyl, ethyl (Z)-2-chloro-3-[2-chloro-5-(1,3-dioxo-4,5,6,7-tetrahydroisoindol-2-yl)-phenyl]acrylate], the “% Control OBS” value (Veronica persicaria; Cinidon-ethyl 50 g/ha alone) was 50%, the “% Control OBS” value (Anthimis mixta; Cinidon-ethyl 50 g/ha alone) was 52% and the “% Control OBS” value (Stellaria media [2]; Cinidon-ethyl 50 g/ha alone) was 23%.
For CCOC(=O)C(Cl)Cc1cc(-n2nc(C)n(C(F)F)c2=O)c(F)cc1Cl (racemic) [Carfentrazone-ethyl, ethyl (RS)-2-chloro-3-[2-chloro-5-(4-difluoromethyl-4,5-dihydro-3-methyl-5-oxo-1H-1,2,4-triazol-1-yl)-4-fluorophenyl]propionate], the “% Control OBS” value (Stellaria media [1]; Picolinafen 0 g/ha, Carfentrazone-ethyl 3.75 g/ha) was 0%, the “% Control OBS” value (Stellaria media [1]; Picolinafen 0 g/ha, Carfentrazone-ethyl 7.50 g/ha) was 0% and the “% Control OBS” value (Stellaria media [1]; Picolinafen 0 g/ha, Carfentrazone-ethyl 15 g/ha) was 0%. The “% Control OBS” value (Stellaria media [1]; Picolinafen 0 g/ha, Carfentrazone-ethyl 30 g/ha) was 0%.
In the case of CC(C)N(C(=O)COc1nnc(C(F)(F)F)s1)c1ccc(F)cc1 [Flufenacet], the “% Control OBS” value (Alopecuris myosuroides; [7]) is reported as 75%, the “% Control OBS” value (Lamium purpurium; [8]) is reported as 18% and the “% Control OBS” value (Galium aparine; [7]) is reported as 40%. For the same compound, the “% Control OBS” value (Galium aparine; [9]) was 55%, the “% Control OBS” value (Papaver rhoeas; [7]) was 0% and the “% Control OBS” value (Papaver rhoeas; [9]) was 0%. For the same compound, the “% Control OBS” value (Papaver rhoeas; [8]) was 18%, the “% Control OBS” value (Stellaria media [3]; [9]) was 0% and the “% Control OBS” value (Stellaria media [3]; Picolinafen 0 g/ha, Flufenacet 60 g/ha) was 0%. The “% Control OBS” value (Stellaria media [3]; [8]) was 0%.

— patent US6645911B2, “Synergistic herbicidal mixtures” (BASF Aktiengesellschaft, priority 2000, dated 2003)
